According to ChEMBL document CHEMBL2034935, “Discovery of a Novel Series of CRTH2 (DP2) Receptor Antagonists Devoid of Carboxylic Acids” (ACS Med Chem Lett, 2011):
Each block holds one molecule with its values, some of them ahead of it. Activity calls are given as the source filed them. The calls are words filed in the database; no cut-off is given here.

Key:
[1] = target: T1, Prostaglandin D2 receptor 2 (Homo sapiens) (UniProt Q9Y5Y4); test: Antagonist activity at human CRTH2 receptor expressed in CHO cell membrane assessed as inhibition of PGD2-induced [35S]GTPgammaS binding at 2 uM after 30 mins by microbeta scintillation counting relative to control; format: functional, cell membranes
T1 sequence (whole entry): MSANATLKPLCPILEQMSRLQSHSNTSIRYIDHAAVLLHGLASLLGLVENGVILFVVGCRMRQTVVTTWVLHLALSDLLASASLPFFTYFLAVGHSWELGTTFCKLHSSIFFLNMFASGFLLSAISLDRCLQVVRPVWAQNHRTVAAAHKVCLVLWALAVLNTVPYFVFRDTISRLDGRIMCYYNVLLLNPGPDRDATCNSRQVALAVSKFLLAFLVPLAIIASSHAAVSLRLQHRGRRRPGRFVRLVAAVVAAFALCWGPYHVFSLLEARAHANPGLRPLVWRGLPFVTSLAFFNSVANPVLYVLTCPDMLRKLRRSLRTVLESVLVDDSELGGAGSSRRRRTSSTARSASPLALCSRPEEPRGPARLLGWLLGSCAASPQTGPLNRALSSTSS

[2] = target: T2, Prostaglandin D2 receptor 2 (Homo sapiens, UniProt Q9Y5Y4); test: Antagonist activity at human CRTH2 receptor expressed in CHO cell membrane assessed as inhibition of PGD2-induced [35S]GTPgammaS binding after 30 mins by microbeta scintillation counting; format: functional, cell membranes
T2 sequence (Q9Y5Y4 whole entry): T1 sequence (whole entry)

[3] = target: T2, Prostaglandin D2 receptor 2; test: Displacement of [3HPGD2 from human CRTH2 receptor expressed in CHO cell membrane after 90 mins by scintillation proximity assay; format: cell membranes
[4] = target: T1, Prostaglandin D2 receptor 2 (Homo sapiens); test: Agonist activity at human CRTH2 receptor expressed in CHO cell membrane assessed as induction of [35S]GTPgammaS binding at 20 uM after 30 mins by microbeta scintillation counting relative to PGD2; format: functional, cell membranes
Cytochrome P450 2C8 = target: T3, Cytochrome P450 2C8 (Homo sapiens, UniProt P10632); test: Inhibition of human recombinant CYP2C8 incubated for 15 mins prior to substrate addition measured after 30 mins by spectrophotometry; format: ADME
T3 sequence (P10632 whole entry): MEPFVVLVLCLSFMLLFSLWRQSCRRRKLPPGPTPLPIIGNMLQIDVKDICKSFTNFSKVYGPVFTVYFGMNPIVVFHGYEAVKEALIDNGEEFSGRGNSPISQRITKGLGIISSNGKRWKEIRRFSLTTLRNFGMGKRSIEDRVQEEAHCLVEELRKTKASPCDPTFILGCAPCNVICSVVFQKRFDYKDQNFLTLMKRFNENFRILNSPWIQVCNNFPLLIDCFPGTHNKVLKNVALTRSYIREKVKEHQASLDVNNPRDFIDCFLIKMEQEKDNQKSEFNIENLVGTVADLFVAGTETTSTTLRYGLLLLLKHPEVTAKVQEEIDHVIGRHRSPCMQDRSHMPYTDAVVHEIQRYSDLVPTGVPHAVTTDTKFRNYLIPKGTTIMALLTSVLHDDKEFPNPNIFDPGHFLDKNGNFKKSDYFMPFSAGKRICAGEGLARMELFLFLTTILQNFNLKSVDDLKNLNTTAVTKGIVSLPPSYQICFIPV

Cytochrome P450 2C9 = Cytochrome P450 2C9 (Homo sapiens, UniProt P11712); test: Inhibition of human recombinant CYP2C9 incubated for 15 mins prior to substrate addition measured after 30 mins by spectrophotometry; format: ADME
[5] = Intrinsic clearance in human liver microsomes assessed per mg protein at 1 uM up to 45 mins by LC/MS analysis; format: ADME, Microsome; details: read-out: CLH
[6] = Intrinsic clearance in rat liver microsomes assessed per mg protein at 1 uM up to 45 mins by LC/MS analysis; format: ADME, Microsome; details: read-out: CLH
Cytochrome P450 2C19 = Cytochrome P450 2C19 (Homo sapiens, UniProt P33261); test: Inhibition of human recombinant CYP2C19 incubated for 15 mins prior to substrate addition measured after 30 mins by spectrophotometry; format: ADME
Chain of Cytochrome P450 2C19 (P33261 whole entry): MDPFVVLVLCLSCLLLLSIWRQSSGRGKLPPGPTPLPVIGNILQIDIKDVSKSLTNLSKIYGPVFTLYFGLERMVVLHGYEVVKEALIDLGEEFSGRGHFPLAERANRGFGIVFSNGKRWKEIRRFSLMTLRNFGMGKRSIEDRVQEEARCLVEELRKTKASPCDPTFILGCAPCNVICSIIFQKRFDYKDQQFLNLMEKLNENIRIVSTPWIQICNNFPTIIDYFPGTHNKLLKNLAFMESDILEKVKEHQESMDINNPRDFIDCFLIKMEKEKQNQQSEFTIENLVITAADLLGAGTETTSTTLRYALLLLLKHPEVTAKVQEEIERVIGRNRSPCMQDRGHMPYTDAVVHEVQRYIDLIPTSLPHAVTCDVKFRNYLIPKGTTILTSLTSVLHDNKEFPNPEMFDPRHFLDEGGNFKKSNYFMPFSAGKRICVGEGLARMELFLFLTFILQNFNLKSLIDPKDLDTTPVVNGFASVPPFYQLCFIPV

Chain of Cytochrome P450 2C9 (P11712 whole entry): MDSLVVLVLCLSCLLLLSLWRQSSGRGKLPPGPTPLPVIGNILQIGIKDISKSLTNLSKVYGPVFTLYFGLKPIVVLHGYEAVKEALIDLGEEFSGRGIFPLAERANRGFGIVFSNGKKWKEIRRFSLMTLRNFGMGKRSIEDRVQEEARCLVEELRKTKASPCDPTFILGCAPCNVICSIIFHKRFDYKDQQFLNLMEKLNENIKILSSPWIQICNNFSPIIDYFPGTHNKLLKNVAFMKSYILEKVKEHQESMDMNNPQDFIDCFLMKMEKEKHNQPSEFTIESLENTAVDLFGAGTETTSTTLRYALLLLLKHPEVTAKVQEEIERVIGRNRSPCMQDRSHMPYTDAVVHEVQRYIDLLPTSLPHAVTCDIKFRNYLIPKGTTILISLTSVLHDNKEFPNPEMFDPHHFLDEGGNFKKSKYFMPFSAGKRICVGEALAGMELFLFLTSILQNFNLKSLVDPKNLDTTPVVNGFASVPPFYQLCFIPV

IC50 (Cytochrome P450 2C8): 470 nM
IC50 (Cytochrome P450 2C9): 340 nM
microsomal CLint at 1 µM [5]: 1700 µL/min/mg
Ki [3]: 6.4 nM
microsomal CLint at 1 µM [6]: 30 µL/min/mg
IC50 (Cytochrome P450 2C19): 900 nM
Structure (SMILES): CCC(=O)N(Cc1cccc(OC(C)C)c1)c1cc(F)cc(-c2nnn[nH]2)c1

Ki [3]: 12 nM
Structure (SMILES): CCCC(=O)N(Cc1ccc2c(c1)OCCO2)c1cccc(-c2nnn[nH]2)c1

Ki [3]: 5.2 nM
Structure (SMILES): CCC(=O)N(Cc1ccc(S(=O)(=O)C(F)(F)F)cc1)c1cc(F)cc(-c2nnn[nH]2)c1

Ki [3]: 69 nM
Structure (SMILES): CCC(=O)N(Cc1ccc(S(C)(=O)=O)cc1)c1cccc(-c2nnn[nH]2)c1

IC50 (Cytochrome P450 2C8): 970 nM
IC50 (Cytochrome P450 2C9): 2000 nM
inhibition [1]: 106%
microsomal CLint at 1 µM [5]: 55 µL/min/mg
microsomal CLint at 1 µM [6]: 10 µL/min/mg
Emax [4]: -17%
IC50 (Cytochrome P450 2C19): 3700 nM
Structure (SMILES): CCC(=O)N(Cc1cccc(O)c1)c1cc(F)cc(-c2nnn[nH]2)c1

Ki [3]: 44 nM
Structure (SMILES): CCCCC(=O)N(Cc1cccc(OC)c1)c1cccc(-c2nnn[nH]2)c1

Ki [3]: 1200 nM
Structure (SMILES): CCC(=O)N(Cc1ccc(F)cc1)c1cccc(-c2nnn[nH]2)c1

Ki [3]: 3 nM
Structure (SMILES): CCCCC(=O)N(Cc1ccc(OC)cc1)c1cc(F)cc(-c2nnn[nH]2)c1

Ki [3]: 39 nM
Structure (SMILES): CCCCC(=O)N(Cc1ccc2ccccc2c1)c1cccc(-c2nnn[nH]2)c1

Ki [3]: 1800 nM
Structure (SMILES): CCC(=O)N(Cc1ccccc1)c1cccc(-c2nnn[nH]2)c1

Ki [3]: 1400 nM
Structure (SMILES): CCC(=O)N(Cc1cccc(F)c1)c1cccc(-c2nnn[nH]2)c1

inhibition [1]: 107%
IC50 [2]: 64 nM
Ki [3]: 8.2 nM
Emax [4]: -11%
Structure (SMILES): CCC(=O)N(Cc1cccc(OC)c1)c1cc(F)cc(-c2nnn[nH]2)c1

Ki [3]: 7.6 nM
Structure (SMILES): CCC(=O)N(Cc1ccc(OC)cc1)c1cc(F)cc(-c2nnn[nH]2)c1

Ki [3]: 950 nM
Structure (SMILES): CCC(=O)N(Cc1ccccc1F)c1cccc(-c2nnn[nH]2)c1

Ki [3]: 42 nM
Structure (SMILES): CCC(=O)N(Cc1ccc2c(c1)OCCO2)c1cccc(-c2nnn[nH]2)c1

Ki [3]: 220 nM
Structure (SMILES): CCC(=O)N(Cc1ccc(OC)cc1)c1cccc(-c2nnn[nH]2)c1

Ki [3]: 330 nM
Structure (SMILES): CCCCC(=O)N(Cc1ccc2cnccc2c1)c1cccc(-c2nnn[nH]2)c1

IC50 (Cytochrome P450 2C8): 54 nM
IC50 (Cytochrome P450 2C9): > 20000 nM
microsomal CLint at 1 µM [5]: < 10 µL/min/mg
Ki [3]: 3.1 nM
microsomal CLint at 1 µM [6]: < 10 µL/min/mg
IC50 (Cytochrome P450 2C19): 150 nM
Structure (SMILES): CCC(=O)N(Cc1ccc(S(C)(=O)=O)cc1)c1cc(F)cc(-c2nnn[nH]2)c1

Ki [3]: 580 nM
Structure (SMILES): CCC(=O)N(Cc1cccc(C)c1)c1cccc(-c2nnn[nH]2)c1

Ki [3]: 360 nM
Structure (SMILES): CCC(=O)N(Cc1cccc(OC)c1)c1cccc(-c2nnn[nH]2)c1

IC50 (Cytochrome P450 2C8): 320 nM
IC50 (Cytochrome P450 2C9): 840 nM
microsomal CLint at 1 µM [5]: > 1000 µL/min/mg
Ki [3]: 50 nM
microsomal CLint at 1 µM [6]: 43 µL/min/mg
IC50 (Cytochrome P450 2C19): 260 nM
Structure (SMILES): CCCCC(=O)N(Cc1ccc(OC)cc1)c1cccc(-c2nnn[nH]2)c1

Ki [3]: 56 nM
Structure (SMILES): CCC(=O)N(Cc1ccc2ccccc2n1)c1cc(F)cc(-c2nnn[nH]2)c1

Ki [3]: 130 nM
Structure (SMILES): CCC(=O)N(Cc1ccc2c(c1)OCO2)c1cccc(-c2nnn[nH]2)c1

Ki [3]: 22 nM
Structure (SMILES): CCC(=O)N(Cc1ccc(O)cc1)c1cc(F)cc(-c2nnn[nH]2)c1

More lines, now with the values behind:

Structure (SMILES): CCCCC(=O)N(Cc1ccc2c(c1)OCCO2)c1cc(F)cc(-c2nnn[nH]2)c1
inhibition [1]: 102%
IC50 [2]: 2.8 nM
Ki [3]: 2 nM
Emax [4]: -15%

Structure (SMILES): CS(=O)(=O)c1ccc(CN(C(=O)c2ccccc2)c2cc(F)cc(-c3nnn[nH]3)c2)cc1
Ki [3]: 2.2 nM

Structure (SMILES): CS(=O)(=O)c1ccc(CN(C(=O)Cc2ccccc2)c2cc(F)cc(-c3nnn[nH]3)c2)cc1
IC50 (Cytochrome P450 2C8): 50 nM
IC50 (Cytochrome P450 2C9): 290 nM
inhibition [1]: 94%
microsomal CLint at 1 µM [5]: 28 µL/min/mg
IC50 [2]: 3.7 nM
Ki [3]: 0.9 nM
microsomal CLint at 1 µM [6]: 20 µL/min/mg
Emax [4]: -10%
IC50 (Cytochrome P450 2C19): 170 nM

Structure (SMILES): CC(C)CC(=O)N(Cc1ccc(S(C)(=O)=O)cc1)c1cc(F)cc(-c2nnn[nH]2)c1
IC50 (Cytochrome P450 2C8): 79 nM
IC50 (Cytochrome P450 2C9): 1700 nM
inhibition [1]: 85%
microsomal CLint at 1 µM [5]: 17 µL/min/mg
IC50 [2]: 46 nM
Ki [3]: 3.2 nM
microsomal CLint at 1 µM [6]: 17 µL/min/mg
Emax [4]: inactive
IC50 (Cytochrome P450 2C19): 7500 nM

Structure (SMILES): CS(=O)(=O)c1ccc(CN(C(=O)C2CCOCC2)c2cc(F)cc(-c3nnn[nH]3)c2)cc1
Ki [3]: 28 nM

Structure (SMILES): CC(C)CC(=O)N(Cc1ccc2c(c1)OCCO2)c1cc(-c2nnn[nH]2)ccc1F
Ki [3]: 5.6 nM

Structure (SMILES): CCCCC(=O)N(Cc1cc2ccccc2o1)c1cc(-c2nnn[nH]2)ccc1F
Ki [3]: 7.1 nM

Structure (SMILES): CCCCC(=O)N(Cc1ccc2ccccc2c1)c1cc(-c2nnn[nH]2)ccc1F
Ki [3]: 18 nM

Structure (SMILES): CCCCC(=O)N(Cc1ccc2c(c1)OCCO2)c1cccc(-c2nnn[nH]2)c1
IC50 (Cytochrome P450 2C8): 570 nM
IC50 (Cytochrome P450 2C9): 640 nM
microsomal CLint at 1 µM [5]: > 1000 µL/min/mg
Ki [3]: 7 nM
microsomal CLint at 1 µM [6]: 125 µL/min/mg
IC50 (Cytochrome P450 2C19): 680 nM

Structure (SMILES): CCCC(=O)N(Cc1ccc2c(c1)OCCO2)c1cc(-c2nnn[nH]2)ccc1F
Ki [3]: 4.9 nM

Structure (SMILES): CCCCC(=O)N(Cc1cccc(OC)c1)c1cccc(C(=O)O)c1
Ki [3]: 8000 nM

Structure (SMILES): C#Cc1cccc(CN(C(C)=O)c2cc(-c3nnn[nH]3)ccc2F)c1
Ki [3]: 140 nM

Structure (SMILES): CS(=O)(=O)c1ccc(CN(C(=O)c2cccnc2)c2cc(F)cc(-c3nnn[nH]3)c2)cc1
Ki [3]: 4 nM

Structure (SMILES): CCCCC(=O)N(Cc1ccc(OC)cc1)c1cc(Cl)cc(-c2nnn[nH]2)c1
inhibition [1]: 110%
IC50 [2]: 10 nM
Ki [3]: 3.6 nM
Emax [4]: -10%

Structure (SMILES): Cc1ccc(CCC(=O)N(Cc2ccc(S(C)(=O)=O)cc2)c2cc(F)cc(-c3nnn[nH]3)c2)cc1
Ki [3]: 2.5 nM

Structure (SMILES): CS(=O)(=O)c1ccc(CN(C(=O)c2ccncc2)c2cc(F)cc(-c3nnn[nH]3)c2)cc1
Ki [3]: 17 nM

Structure (SMILES): CCCCC(=O)N(Cc1ccc2c(c1)OCCO2)c1cccc(CC(=O)O)c1
Ki [3]: 4300 nM

Structure (SMILES): CCC(=O)N(Cc1ccc2c(c1)OCCO2)c1cc(-c2nnn[nH]2)ccc1F
Ki [3]: 11 nM

Structure (SMILES): CCCCC(=O)N(Cc1ccc2c(c1)OCCO2)c1cc(-c2nnn[nH]2)ccc1F
Ki [3]: 3.3 nM

Structure (SMILES): CCCCC(=O)N(Cc1cccs1)c1cccc(-c2nnn[nH]2)c1
Ki [3]: 620 nM

Structure (SMILES): C#Cc1cccc(CN(C(=O)CCCC)c2cc(-c3nnn[nH]3)ccc2F)c1
Ki [3]: 10 nM

Structure (SMILES): CC(C)C(=O)N(Cc1ccc(S(C)(=O)=O)cc1)c1cc(F)cc(-c2nnn[nH]2)c1
Ki [3]: 17 nM

Structure (SMILES): CS(=O)(=O)c1ccc(CN(C(=O)C2CCCC2)c2cc(F)cc(-c3nnn[nH]3)c2)cc1
IC50 (Cytochrome P450 2C8): 220 nM
IC50 (Cytochrome P450 2C9): 7400 nM
inhibition [1]: 80%
microsomal CLint at 1 µM [5]: 92 µL/min/mg
IC50 [2]: 57 nM
Ki [3]: 5.4 nM
microsomal CLint at 1 µM [6]: 40 µL/min/mg
Emax [4]: 7%
IC50 (Cytochrome P450 2C19): 12000 nM

Structure (SMILES): CCCCC(=O)N(Cc1ccc2c(c1)OCCO2)c1cc(-c2nnn[nH]2)c(F)cc1F
Ki [3]: 45 nM

Structure (SMILES): CCCCC(=O)N(Cc1cccc(OC)c1)c1cc(F)cc(-c2nnn[nH]2)c1
Ki [3]: 3 nM
